Laboratory results reported in patent US20200131669A1, “CYCLIC PEPTIDE COMPOUND HAVING HIGH MEMBRANE PERMEABILITY, AND LIBRARY CONTAINING SAME” (Chugai Seiyaku Kabushiki Kaisha, priority 2017, published 2020).
Positions of bridges follow the written chain, without caps; N, C: chain ends. Non-standard residues stand in square brackets, D forms with d. Residues, ends and D or L forms follow the SMILES beside them. *: point of attachment. Phe(4-CF3) = N[C@@H](Cc1ccc(C(F)(F)F)cc1)C(=O)O; NMePhe(3-Cl) = CN[C@@H](Cc1cccc(Cl)c1)C(=O)O; NMeF = CN[C@@H](Cc1ccccc1)C(=O)O; NMeI = CC[C@H](C)[C@H](NC)C(=O)O; NMeD = CN[C@@H](CC(=O)O)C(=O)O; NMeL = CN[C@@H](CC(C)C)C(=O)O; NMeV = CN[C@H](C(=O)O)C(C)C; NMeA = CN[C@@H](C)C(=O)O; Piperidide = C1CCN(*)CC1; NPrGly = CCCNCC(=O)O; Sar = CNCC(=O)O; tBu = CC(C)(C)*

Assay: Caco-2 membrane permeability, improved method as used in the following Examples (96-well, 20 to 24 h preincubation)
Type: in vitro ADME
Settings: human, Caco-2, Caco-2 (cm/sec)
Outline: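 Caco-2 monolayers were grown three weeks and preincubated 20–24 h at 37 °C with compound in DMEM+FaSSIF (1% DMSO) apically. The assay then used compound in FaSSIF/HBSS (1% DMSO, pH 6.0) apically and HBSS with 4% BSA (pH 7.4) basally. Basal samples were taken at 180 min for LC/MS, and Papp (cm/sec) was calculated.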

| SMILES | Papp A→B at 180 min |
| --- | --- |
| CC(C)C[C@@H]1NC(=O)[C@H](CC(C)C)N(C)C(=O)[C@H](CC(C)C)N(C)C(=O)CN(C)C(=O)[C@H]([C@@H](C)O)NC(=O)[C@H](CC(C)C)N(C)C(=O)[C@H](CC(C)C)N(C)C(=O)[C@H](Cc2ccc(C(F)(F)F)cc2)NC(=O)[C@@H](C(C)C)NC(=O)C[C@@H](C(=O)N2CCCCC2)NC1=O [pd148] ([dV][Phe(4-CF3)][NMeL][NMeL]T[Sar][NMeL][NMeL]LD-Piperidide; lactam N-10) | 1.1 ×10⁻⁶ cm/s |
| CC(C)C[C@@H]1NC(=O)[C@H](CC(C)C)N(C)C(=O)[C@@H](C)NC(=O)C[C@@H](C(=O)N2CCCCC2)N(C)C(=O)[C@H](CC(C)C)N(C)C(=O)[C@H]([C@@H](C)O)NC(=O)[C@H](CC(C)C)N(C)C(=O)[C@H](Cc2ccc(C(F)(F)F)cc2)NC1=O [pd149] ([dA][NMeL]L[Phe(4-CF3)][NMeL]T[NMeL][NMeD]-Piperidide; lactam N-8) | 1.7 ×10⁻⁶ cm/s |
| CC(C)C[C@H]1C(=O)N(C)CC(=O)N[C@@H](Cc2ccccc2)C(=O)N[C@@H](Cc2ccc(C(F)(F)F)cc2)C(=O)N(C)[C@@H](CC(C)C)C(=O)N(C)[C@@H](CC(C)C)C(=O)N[C@@H]([C@@H](C)O)C(=O)N(C)[C@H](C(=O)N2CCCCC2)CC(=O)N1C [pd150] ([NMeL][Sar]F[Phe(4-CF3)][NMeL][NMeL]T[NMeD]-Piperidide; lactam N-8) | 1.7 ×10⁻⁶ cm/s |
| CC(C)C[C@@H]1NC(=O)C[C@@H](C(=O)N2CCCCC2)N(C)C(=O)[C@H](Cc2ccc(C(F)(F)F)cc2)NC(=O)[C@H](CC(C)C)N(C)C(=O)CN(C)C(=O)[C@H]([C@@H](C)O)NC(=O)[C@H](CC(C)C)N(C)C(=O)[C@H](CC(C)C)N(C)C1=O [pd151] (L[NMeL][NMeL]T[Sar][NMeL][Phe(4-CF3)][NMeD]-Piperidide; lactam N-8) | 3.2 ×10⁻⁶ cm/s |
| CCCN1CC(=O)N(C)[C@@H](CC(C)C)C(=O)N[C@@H](COC(C)(C)C)C(=O)N[C@H](C(=O)N2CCCCC2)CC(=O)N(C)[C@@H](CC(C)C)C(=O)N[C@@H](Cc2ccc(C(F)(F)F)cc2)C(=O)N(C)[C@@H](CC(C)C)C(=O)N(C)[C@@H]([C@@H](C)CC)C(=O)N[C@@H]([C@@H](C)O)C1=O [pd152] ([NMeL][Phe(4-CF3)][NMeL][NMeI]T[NPrGly][NMeL]S(tBu)D-Piperidide; lactam N-9) | 1.2 ×10⁻⁶ cm/s |
| CC(C)C[C@@H]1NC(=O)C[C@@H](C(=O)N2CCCCC2)NC(=O)[C@H](CC(C)C)N(C)C(=O)[C@H](CC(C)C)N(C)C(=O)[C@H](Cc2ccc(C(F)(F)F)cc2)NC(=O)[C@H](CC(C)C)N(C)C(=O)[C@H]([C@@H](C)O)NC(=O)[C@H](CC(C)C)N(C)C(=O)[C@H](C)N(C)C1=O [pd153] (L[NMeA][NMeL]T[NMeL][Phe(4-CF3)][NMeL][NMeL]D-Piperidide; lactam N-9) | 1.4 ×10⁻⁶ cm/s |
| CC(C)C[C@H]1C(=O)N[C@@H](COC(C)(C)C)C(=O)N(C)[C@@H](Cc2ccccc2)C(=O)N(C)[C@@H](CC(C)C)C(=O)N[C@H](C(=O)N2CCCCC2)CC(=O)N[C@@H](C)C(=O)N(C)[C@@H](Cc2cccc(Cl)c2)C(=O)N[C@@H](C(C)C)C(=O)N(C)[C@@H](C(C)C)C(=O)N[C@@H]([C@@H](C)O)C(=O)N(C)CC(=O)N1C [pd154] (A[NMePhe(3-Cl)]V[NMeV]T[Sar][NMeL]S(tBu)[NMeF][NMeL]D-Piperidide; lactam N-11) | 1.4 ×10⁻⁶ cm/s |
| CC(C)C[C@H]1C(=O)N[C@@H](COC(C)(C)C)C(=O)N(C)[C@@H](Cc2ccccc2)C(=O)N(C)[C@@H](CC(C)C)C(=O)N[C@H](C(=O)N2CCCCC2)CC(=O)N2CCC[C@@H]2C(=O)N(C)[C@@H](Cc2cccc(Cl)c2)C(=O)N[C@@H](C(C)C)C(=O)N(C)[C@@H](C(C)C)C(=O)N[C@@H]([C@@H](C)O)C(=O)N(C)CC(=O)N1C [pd155] ([dP][NMePhe(3-Cl)]V[NMeV]T[Sar][NMeL]S(tBu)[NMeF][NMeL]D-Piperidide; lactam N-11) | 2.1 ×10⁻⁶ cm/s |
